Laboratory results published in paper PMC11677465, “Development of a PET Probe Targeting Bromodomain and Extra-Terminal Proteins for In Vitro and In Vivo Visualization” (Pharmaceuticals, 2024).

Target: T1, BRD4 (Homo sapiens, UniProt O60885)
T1 construct: BD1 (BRD4(1), first bromodomain)
Assay: BROMOscan bromodomain competition binding assay with qPCR readout

How did the Kd turn out when `COc1cc2c(cc1-c1c(C)nn(C)c1C)ncc1nc(C)n([C@H](C)c3ccccc3)c12` [YL10, (R)-8-methoxy-2-methyl-1-(1-phenylethyl)-7-(1,3,5-trimethyl-1H-pyrazol-4-yl)-1H-imidazo[4,5-c]quinoline] was run?
Its Kd is 480 nM.
